In test [1] the test system is Aspergillus niger isolate. The experiment in a line: Minimum fungicidal concentration (MFC). Format: cell-based. The following applies: for MFC: Aspergillus niger, read-out: Minimum fungicidal concentration.
The test system of test [2] is Penicillium chrysogenum Thom ATCC 48908. The experiment in a line: Well diffusion assay (zone of inhibition). Format: cell-based. To be noted: for zone of inhibition at 175000 µM / zone of inhibition at 350000 µM: Penicillium chrysogenum, read-out: Zone of inhibition, Average ± standard deviation. On the technique in general: A growth-free zone around the sample is the usual read-out of agar diffusion tests.

For a further test, the system named is A. niger. Briefly: Fungicidal effect in mold suspension, one hour treatment, DRBC plating. The test is classed as cell-based, Aspergillus niger. To be noted: for A. niger count, Average ± standard deviation: n = 3. Here is the method:
Preparation of mold suspension. Aspergillus niger ATCC 24126 and Penicillium chrysogenum Thom ATCC 48908 were purchased from American Type Culture Collection (ATCC). The strains were stored at −80° C. in glycerol. Prior to test, both strains were revived by streaking a loopful of culture onto DRBC (i.e., dichloran rose-bengal chloramphenicol (CM1148B; Thermo Scientific Oxoid) prepared as per recommended by supplier) with 72 hours incubation at 25° C. The three-days old mold culture lawn was diluted in phosphate buffer (0.30 mM; pH 7.2) to obtain a mold suspension of ca. 10^6 CFU/mL. The colony count of the suspension was determined through conventional plating method using DRBC agar at the appropriate dilution. Briefly, the mold suspension was diluted to the appropriate dilution with phosphate buffer (0.30 mM; pH 7.2). Upon dilution, 100 μL of the diluted mold suspension was spread onto the DRBC agar. After which, the plates were incubated at 25° C. for five days prior to counting. Tests were carried out in triplicates.
Fungicidal effect of PPA against A. niger. The fungicidal effect of PPA in solution was evaluated in comparison to propionic acid and hydrogen peroxide. To serve as a positive control and comparison point, propionic acid, was tested at two concentrations, 1500 and 3000 ppm, equivalent to 0.02 and 0.04 mol/L. On the other hand, PPA was tested at a single concentration of 0.02 mol/L. To evaluate the effect of hydrogen peroxide, hydrogen peroxide was also included as one of the treatment groups. Hydrogen peroxide was tested at 2.43% w/w. The concentration of hydrogen peroxide to be tested is calculated based on the equivalent amount present in 0.02 mol/L of PPA, which is the sum of hydrogen peroxide already present and from the potential breakdown of PPA. A 900 μL of mold suspension (of c.a. 10^6 CFU/mL prepared in 0.9% sodium chloride) was treated with 100 μL of the test solutions (prepared in sterile water) for one hour.
After one hour, the treatment solutions were neutralized with 2 mL of sodium thiosulphate and 7 mL of phosphate buffer (0.3 mM; pH 7.2). The solution was at 10-1 dilution. Subsequently the solution was further diluted up to 10-5 with phosphate buffer. The mold count for each treatment was determined through conventional plating method using DRBC agar. Test was conducted in triplicates. Controls were prepared with i) 100 μL of sterile water instead of test solutions and ii) 900 μL of 0.9% sodium chlorine instead of mold suspension and 100 μL of sterile water instead of test solutions.

Test [3] has as its system Aspergillus niger ATCC 24126. Briefly: Well diffusion assay (zone of inhibition). Format: cell-based. The following applies: for zone of inhibition at 175000 µM / zone of inhibition at 350000 µM: Aspergillus niger, read-out: Zone of inhibition, Average ± standard deviation.
The test system of test [4] is mold in naturally contaminated feed for laying hens. The experiment in a line: Mold counts in naturally contaminated laying hen feed, 7 days. The following applies: 2500 ppm peroxyacid on feed, 7 days at 25° C. On the procedure:
PPA acid and peracetic acid stock solutions were provided at a concentration of 20% peroxyacid. The treatment solutions were diluted to the correct concentration with ASTM Type II water before application of the treatments. Feed for laying hens that is naturally contaminated with mold was used for the study. The initial mold count of the feed was log 4.66 cfu/g. For each treatment, 100 g of feed was treated with 1.5 ml of the diluted PPA, peracetic acid or a 1:1 mix of PPA acid and peracetic acid, resulting in a final concentration of 2500 ppm of peroxyacid on the feed. The negative control treatment was treated with 1.5 ml of water. The feed was kept for 7 days at 25° C. before analysis.
Triplicate 5 g feed samples from each treatment were taken and tested for molds. Each sample was mixed vigorously with 0.1% peptone water 30 s and then a 0.1 ml aliquot of the sample was plated on DRBC agar and incubated upright in a 25° C. incubator for 5 days before counting.

In test [5] the test system is Aspergillus spp., Penicillium spp, and Fusarium spp. To be noted: Higgins et al. 1999; cited from earlier work.
In a further test the test system is Penicillium vericulosum. To be noted: cited from earlier work.
A further test relates to Aspergillus niger. To be noted: cited from earlier work.
[6] abbreviates: 48 hours at 25° C., then DRBC plate 5 days at 25° C.
[7] abbreviates: ATCC48908, 0.175 mol/L active, 72 hours, n = 3.
Where [8] appears, read: ATCC48908, 0.350 mol/L active, 72 hours, n = 3.
The mark [9] stands for this setting: 0.175 mol/L active, 72 hours, n = 3.
[10] abbreviates: 0.350 mol/L active, 72 hours, n = 3.

Molecules are shown by their SMILES. ≈ marks a conversion by molar mass, not a printed value. Like-named read-outs stand apart in the source and are kept apart here. Marks after values point to notes of the source that are not given here.

By zone of inhibition is commonly meant the extent of the growth-free halo in a diffusion test.

As for `CC(=O)O` [Acetic acid], the MFC in test [1] (setting [6]) was above 5000 µg/mL. The zone of inhibition at 175000 µM in test [2] (setting [7]) was 8.97 ± 0.55 mm. Moreover, the zone of inhibition at 350000 µM in test [2] (setting [8]) came out at 10.9 ± 0.75 mm.
For `CCCC(=O)O` [Butyric acid], the MFC in test [1] (setting [6]) is 5000 µg/mL (≈ 56.7 mM).
Turning to `OO` [Hydrogen peroxide], the “reduction of A. niger count” value in the test with A. niger (2.43%) is reported as “approximately 1.2 log CFU/mL”. Further, the “A. niger count, Average ± standard deviation” value in the test on A. niger (2.43% v/v) is 4.75 ± 0.13^b log CFU/mL. Besides, the “Zone of inhibition, Average ± standard deviation” value in test [3] (0.3% v/v, 72 hours, n = 3) was 8.00 ± 0.00^b mm; in test [3] (0.6% v/v, 72 hours, n = 3), 9.42 ± 0.16^bc mm; in test [3] (1.0% v/v, 72 hours, n = 3), 10.93 ± 0.31^bc mm; in test [2] (0.3% v/v, 72 hours, n = 3), 17.10 ± 0.05^cd mm; in test [2] (0.6% v/v, 72 hours, n = 3) it was 19.32 ± 0.76^de mm; in test [2] (1.0% v/v, 72 hours, n = 3), 22.08 ± 0.34d^ef mm.
Consider `CCC(=O)OO` [PPA, perpropionic acid], for which the “reduction of A. niger count” value in the test on A. niger (0.02 mol/L) is reported as “at least 4 log CFU/mL”. For the same compound, the “Zone of inhibition, Average ± standard deviation” value in test [3] (setting [9]) is 16.42 ± 2.19^d mm; in test [3] (setting [10]), 25.67 ± 2.05^e mm; in test [2] (setting [9]), 23.80 ± 0.58^ef mm; in test [2] (setting [10]) it was 35.45 ± 4.55^g mm. Also, in test [4], the “mold counts seven days after treatment versus control” value was “not significantly different from the control treatment”. For the same compound, the Minimum fungicidal concentration in test [1] (setting [6]) was found to be 500 ppm. Moreover, the “times more effective in killing mold than propionic acid” value in test [1] (from the MFC study) is “at least 5 times”.
`CC(=O)OO` [Peracetic acid]: in test [3] (ATCC24126, 72 h), the zone of inhibition at 175000 µM amounted to 16 ± 0.8 mm and the zone of inhibition at 350000 µM is 24.7 ± 2.04 mm. Also, the “mold counts seven days after treatment versus control” value in test [4] is “not significantly different from the control treatment”. Also, the MFC in test [1] amounted to 1000 µg/mL (≈ 13.1 mM). Besides, in test [2] (ATCC48908, 72 h), the zone of inhibition at 175000 µM came out at 24.1 ± 0.33 mm and the zone of inhibition at 350000 µM was 36 ± 3.8 mm.
As to `CCC(=O)O` [Propionic acid], the “reduction of A. niger count” value with A. niger (0.02 mol/L) is given as “no count reduction”. Besides, the entries for the “A. niger count, Average ± standard deviation” value in the test with A. niger (0.02 mol/L) and in the test on A. niger (0.04 mol/L) were 6.01 ± 0.08^c log CFU/mL and 6.08 ± 0.11^c log CFU/mL, respectively. Moreover, in the test on A. niger (0.04 mol/L (3000 ppm)), the fungicidal effect entry is reported as “no fungicidal effect”. The “concentration for complete inhibition” value in test [5] is given as “lower than 0.35%”. The zone of inhibition at 175000 µM in test [3] (ATCC24126, 0.175 mol/L active, 72 hours, n = 3) was found to be 9.42 ± 0.66 mm; in test [2] (setting [7]) it was 9.15 ± 0.45 mm. Also, the zone of inhibition at 350000 µM is 12.12 ± 0.03 mm in test [3] (ATCC24126, 0.350 mol/L active, 72 hours, n = 3) and 12.1 ± 0.43 mm in test [2] (setting [8]). In test [1] (setting [6]), this compound yielded a Minimum fungicidal concentration above 5000 ppm. Further, the “concentration capable of inhibiting” value in the test on Penicillium vericulosum and in the test on Aspergillus niger was 1000-2000 ppm in each case.

These data come from patent US20260157369A1, “COMPOSITIONS CONTAINING PEROXYACID TO INHIBIT GROWTH OF SPORE-PRODUCING ORGANISMS IN ANIMAL FEED AND RELATED METHODS” (KEMIN INDUSTRIES, INC., priority 2024, published 2026).
